# Patent US20040005537A1, “Method of identifying toxic agents using differential gene expression” (priority 2000, published 2004)
# Tested on: rat heart tissue
# Assay: GENECALLING differential gene expression analysis after dosing of serotonin modulating agents
# Format: in vivo, Sprague Dawley rats
# Procedure: Control animals received sterile water or canola oil. The animals were sacrificed 24 hours following the last dose. Liver tissue was dissected from the animals, and total RNA was recovered from the dissected tissue. cDNA was prepared and the resulting samples were processed through using GENECALLING™ differential expression analysis as described in U.S. Pat. No. 5,871,697 and in Shimkets et al., Nature Biotechnology 17:798-803 (1999). The contents of these patents and publications are incorporated herein by reference in their entirety.
# Thousands of gene fragments were initially found to be differentially expressed in rat heart tissue in response to serotonin modulating agents in. Genes fragments whose expression levels were modulated greater than ±1.5-fold were selected for further analysis.
# Column 6 of Table 1, entitled “Function”, lists the type of classification assigned for the protein, based on its function. The 210 single nucleic acid sequences identified herein, are referred to herein as CARDIOTOX 1-210.
smiles,measurement,setting,value
CN1C[C@H](C(=O)N[C@]2(C)O[C@@]3(O)[C@@H]4CCCN4C(=O)[C@H](Cc4ccccc4)N3C2=O)C[C@@H]2c3cccc4[nH]cc(c34)C[C@H]21 [dihydroergotamine],"Effects on Transcription Level: Novel gene fragment, 467 bp, 94% SI to mouse gelsolin [J04953]",CARDIOTOX 70,−1.6 fold
same,"Effects on Transcription Level: Novel gene fragment, 535 bp, 90% SI to mouse slow/cardiac troponin C [M29793]",CARDIOTOX 71,−1.7 fold
same,"Effects on Transcription Level: Novel gene fragment, 445 bp, 85% SI to human skeletal muscle alpha 2 actinin [M86406]",CARDIOTOX 72,−2.0 fold
same,"Effects on Transcription Level: Novel gene fragment, 246 bp, 89% SI to mouse ponsin-1 [AF078667]",CARDIOTOX 73,−3.5 fold
same,"Effects on Transcription Level: Novel gene fragment, 126 bp, 77% SI to human DNA sequence from cosmid V311G7, between markers DXS366 and DXS87 on chromosome X [Z69304]",CARDIOTOX 74,+1.8 fold
same,"Effects on Transcription Level: Novel gene fragment, 370 bp",CARDIOTOX 75,−2.0 fold
same,"Effects on Transcription Level: Novel gene fragment, 337 bp, 78% SI to novel human protein AHNAK [M80899]",CARDIOTOX 76,−4.1 fold
same,"Effects on Transcription Level: Novel gene fragment, 100 bp, 93% SI to human KIAA0750 protein [ABO18293]",CARDIOTOX 77,−9.3 fold
same,"Effects on Transcription Level: Novel gene fragment, 44 bp",CARDIOTOX 78,−9.0 fold
same,"Effects on Transcription Level: Novel gene fragment, 698 bp, 93% SI to mouse plenty-of-prolines-101 [AF062655]",CARDIOTOX 79,−1.9 fold
same,"Effects on Transcription Level: Novel gene fragment, 660 bp, 84% SI to mouse membrane protein TMS-2 [AF181685]",CARDIOTOX 80,−3.0 fold
same,"Effects on Transcription Level: Novel gene fragment, 115 bp",CARDIOTOX 81,−7.5 fold
same,"Effects on Transcription Level: Novel gene fragment, 294 bp, 95% SI to mouse Ndr1 related protein Ndr2 [AB033921]",CARDIOTOX 82,−3.3 fold
same,"Effects on Transcription Level: Novel gene fragment, 198 bp",CARDIOTOX 83,+2.6 fold
same,"Effects on Transcription Level: Novel gene fragment, 730 bp, 86% SI to mouse E800 [Y10968]",CARDIOTOX 84,−1.7 fold
same,"Effects on Transcription Level: Novel gene fragment, 294 bp, 98% SI to cysteine conjugate beta-lyase [S61960]",CARDIOTOX 85,−1.7 fold
same,Effects on Transcription Level: Aconitase,"CARDIOTOX 86, GenBank A1243266",−3.2 fold
same,Effects on Transcription Level: Ribosomal protein L7,"CARDIOTOX 87, GenBank M17422",+2.7 fold
same,Effects on Transcription Level: Ribosomal protein L9,"CARDIOTOX 88, GenBank X51706",+5.0 fold
same,Effects on Transcription Level: Ribosomal protein L12,"CARDIOTOX 89, GenBank X53504",−2.0 fold
same,"Effects on Transcription Level: 18S, 5.8S, and 28S ribosomal RNA's","CARDIOTOX 90, GenBank V01270",+2.6 fold
same,Effects on Transcription Level: Pyruvate dehydrogenase kinase 2 (PDK2),"CARDIOTOX 91, GenBank U10357",−5.8 fold
same,Effects on Transcription Level: D-Binding Protein (DBP),"CARDIOTOX 92, GenBank J03179",−1.5 fold
same,Effects on Transcription Level: Lipoprotein lipase,"CARDIOTOX 93, GenBank L03294",−2.2 fold
same,Effects on Transcription Level: Non-neuronal enolase,"CARDIOTOX 94, GenBank X02610",+3.1 fold
same,Effects on Transcription Level: Glycogen phosphorylase (muscle isozyme),"CARDIOTOX 95, GenBank L10669",−2.7 fold
same,Effects on Transcription Level: Cytochrome c oxidase subunit IV,"CARDIOTOX 96, GenBank X14209",+4.1 fold
same,Effects on Transcription Level: Alpha-globin,"CARDIOTOX 97, GenBank M17083",+3.9 fold
same,Effects on Transcription Level: Beta-globin,"CARDIOTOX 98, GenBank X06701",+3.3 fold
same,Effects on Transcription Level: Myoglobin,"CARDIOTOX 99, GenBank AF197916",+3.9 fold
same,Effects on Transcription Level: Titin,"CARDIOTOX 100, GenBank L38717",−5.4 fold
same,Effects on Transcription Level: Skeletal muscle actin,"CARDIOTOX 101, GenBank V01218",−14.3 fold
same,Effects on Transcription Level: Myosin light chain 2 (MLC2),"CARDIOTOX 102, GenBank M11851",−1.5 fold
same,Effects on Transcription Level: Alpha cardiac myosin heavy chain,"CARDIOTOX 103, GenBank X15938",−2.5 fold
same,Effects on Transcription Level: Troponin I,"CARDIOTOX 104, GenBank U77354",+1.5 fold
same,Effects on Transcription Level: Cardiac calsequestrin,"CARDIOTOX 105, GenBank AF001334",−2.1 fold
same,Effects on Transcription Level: Sulfated glycoprotein 2,"CARDIOTOX 106, GenBank M16975",−1.6 fold
same,Effects on Transcription Level: Aquaporin 7,"CARDIOTOX 107, GenBank AB000507",+1.7 fold
same,Effects on Transcription Level: Carnitine/acylcarnitine carrier protein,"CARDIOTOX 108, GenBank X97831",−2.8 fold
same,Effects on Transcription Level: Glu-Pro Dipeptide Repeat,"CARDIOTOX 109, GenBank U40628",−5.1 fold
same,Effects on Transcription Level: Cystatin beta,"CARDIOTOX 110, GenBank X54737",+2.6 fold
same,"Effects on Transcription Level: Novel gene fragment, 593 bp, 90% SI to human calcineurin B-like protein [Z08983]",CARDIOTOX 111,+1.7 fold
same,"Effects on Transcription Level: Novel gene fragment, 179 bp, 88% SI to human titin [X90568]",CARDIOTOX 112,+6.0 fold
same,"Effects on Transcription Level: Novel gene fragment, 700 bp, 91% SI to mouse periplakin (PPL) [AF116523]",CARDIOTOX 113,+1.7 fold
same,Effects on Transcription Level: Long chain acyl-CoA dehydrogenase (LCAD),"CARDIOTOX 114, GenBank J05029",+1.5 fold
same,Effects on Transcription Level: Sulfated glycoprotein 1 (SGP-1),"CARDIOTOX 115, GenBank M19936",−1.7 fold
same,Effects on Transcription Level: Catalase,"CARDIOTOX 116, GenBank M11670",+1.6 fold
same,Effects on Transcription Level: Alpha-fodrin (A2A) (Nonerythroid spectrin alpha subunit),"CARDIOTOX 117, GenBank AF084186",−1.5 fold
same,Effects on Transcription Level: Cardiac specific sodium channel alpha-subunit,"CARDIOTOX 118, GenBank M27902",−1.6 fold
same,Effects on Transcription Level: Glu-Pro Dipeptide Repeat,"CARDIOTOX 119, GenBank U40628",+1.9 fold
same,"Effects on Transcription Level: Novel gene fragment, 200 bp, 64% SI to human KIAA0733 protein [AB018316]",CARDIOTOX 120,−1.2 fold
same,Effects on Transcription Level: RNA polymerase II transcription factor SIII (p18 subunit),"CARDIOTOX 121, GenBank L42855",+1.4 fold
same,Effects on Transcription Level: Protein-tyrosine phosphalase (LRP),"CARDIOTOX 122, GenBank L01702",+1.4 fold
same,Effects on Transcription Level: Skeletal muscle selenoprotein W (SelW),"CARDIOTOX 123, GenBank U25264",−1.4 fold
same,Effects on Transcription Level: Sarcoplasmic reticulum 2+-Ca-ATPase,"CARDIOTOX 124, GenBank X15635",−1.2 fold
same,Effects on Transcription Level: Ribosomal protein S7,"CARDIOTOX 125, GenBank X53377",+1.7 fold
same,Effects on Transcription Level: Ribophorin I,"CARDIOTOX 126, GenBank X05300",+1.5 fold
same,Effects on Transcription Level: Beta cardiac myosin heavy chain,"CARDIOTOX 127, GenBank X15939",−1.6 fold
same,Effects on Transcription Level: ADP-ribosylation factor 1,"CARDIOTOX 128, GenBank L12380",+1.3 fold
same,Effects on Transcription Level: Laminin receptor,"CARDIOTOX 129, GenBank U04942",+1.1 fold
same,"Effects on Transcription Level: Novel gene fragment, 206 bp, 89% SI to human seryl-tRNA synthetase [X91257]",CARDIOTOX 130,+2.0 fold
same,Effects on Transcription Level: Annexin VI,"CARDIOTOX 131, GenBank X86086",+3.5 fold
same,"Effects on Transcription Level: Novel gene fragment, 325 bp, 90% SI to mouse N-RAP [U76618]",CARDIOTOX 132,+1.4 fold
same,"Effects on Transcription Level: Novel gene fragment, 61 bp (CARDIOTOX 134)",LD10 dose for three days,−1.1 fold
same,"Effects on Transcription Level: Novel gene fragment, 337 bp (CARDIOTOX 133)",LD10 dose for three days,−1.2 fold
same,"Effects on Transcription Level: Novel gene fragment, 378 bp, 88% SI to human coatomer protein (COPA) [U24105] (CARDIOTOX 138)",LD10 dose for three days,+1.2 fold
same,Effects on Transcription Level: Long chain 3-ketoacyl-CoA thiolase (CARDIOTOX 136),"LD10 dose for three days, GenBank D16479",−1.2 fold
same,Effects on Transcription Level: TATA-binding protein interacting protein 120 (TIP120) (CARDIOTOX 135),"LD10 dose for three days, GenBank D87671",+1.1 fold
same,Effects on Transcription Level: Serine protease (CARDIOTOX 139),"LD10 dose for three days, GenBank D88250",+1.2 fold
same,Effects on Transcription Level: Thymosin beta-4 (CARDIOTOX 137),"LD10 dose for three days, GenBank M34043",+1.6 fold
